Assay [1] addresses T1, HCV NS5B RdRp genotype 1b (Hepatitis C virus genotype 1b, UniProt Q9WMX2).
T1 construct: The protein was expressed with an 18 amino acid C-terminal truncation to enhance the solubility; made in house; host or cells: E. coli BL21(DE3), pET21a vector
Briefly: Modified HCV NS5B RdRp enzyme assay (preincubation protocol). It counts as biochemical. The conditions noted are these: HCV NS5B genotype 1b. Here is the method: HCVNS5B RdRp cloning, expression, and purification. The cDNA encoding the NS5B protein of HCV, genotype 1b, was cloned into the pET21a expression vector. The protein was expressed with an 18 amino acid C-terminal truncation to enhance the solubility. The E. coli competent cell line BL21(DE3) was used for expression of the protein. Cultures were grown at 37° C. for ˜4 hours until the cultures reached an optical density of 2.0 at 600 nm. The cultures were cooled to 20° C. and induced with 1 mM IPTG. Fresh ampicillin was added to a final concentration of 50 μg/ml and the cells were grown overnight at 20° C.
Cell pellets (3L) were lysed for purification to yield 15-24 mgs of purified NS5B. The lysis buffer consisted of 20 mM Tris-HCl, pH 7.4, 500 mM NaCl, 0.5% triton X-100, 1 mM DTT, 1 mM EDTA, 20% glycerol, 0.5 mg/ml lysozyme, 10 mM MgCl2, 15 ug/ml deoxyribonuclease I, and Complete TM protease inhibitor tablets (Roche). After addition of the lysis buffer, frozen cell pellets were resuspended using a tissue homogenizer. To reduce the viscosity of the sample, aliquots of the lysate were sonicated on ice using a microtip attached to a Branson sonicator. The sonicated lysate was centrifuged at 100,000×g for 1 hr at 4° C. and filtered through a 0.2 μm filter unit (Corning).
The protein was purified using three sequential chromatography steps: Heparin sepharose CL-6B, polyU sepharose 4B, and Hitrap SP sepharose (Pharmacia). The chromatography buffers were identical to the lysis buffer but contained no lysozyme, deoxyribonuclease I, MgCl2 or protease inhibitor and the NaCl concentration of the buffer was adjusted according to the requirements for charging the protein onto the column. Each column was eluted with a NaCl gradient which varied in length from 5-50 column volumes depending on the column type. After the final chromatography step, the resulting purity of the enzyme is >90% based on SDS-PAGE analysis. The enzyme was aliquoted and stored at −80° C.
Standard HCVNS5B RdRp enzyme assay. HCV RdRp genotype 1b assays were run in a final volume of 60 μl in 96 well plates (Costar 3912). The assay buffer is composed of 20 mM Hepes, pH 7.5, 2.5 mM KCl, 2.5 mM MgCl2, 1 mM DTT, 1.6 U RNAse inhibitor (Promega N2515), 0.1 mg/ml BSA (Promega R3961), and 2% glycerol. All compounds were serially diluted (3-fold) in DMSO and diluted further in water such that the final concentration of DMSO in the assay was 2%. HCV RdRp genotype 1b enzyme was used at a final concentration of 28 nM. A polyA template was used at 6 nM, and a biotinylated oligo-dT12 primer was used at 180 nM final concentration. Template was obtained commercially (Amersham 27-4110). Biotinylated primer was prepared by Sigma Genosys. 3H-UTP was used at 0.6 μCi (0.29 μM total UTP). Reactions were initiated by the addition of enzyme, incubated at 30° C. for 60 min, and stopped by adding 25 μl of 50 mM EDTA containing SPA beads (4 μg/μl, Amersham RPNQ 0007). Plates were read on a Packard Top Count NXT after >1 hr incubation at room temperature.
Modified HCVNS5B RdRp enzyme assay. A modified enzyme assay was performed essentially as described for the standard enzyme assay except for the following: The biotinylated oligo dT12 primer was precaptured on streptavidin-coated SPA beads by mixing primer and beads in assay buffer and incubating at room temperature for one hour. Unbound primer was removed after centrifugation. The primer-bound beads were resuspended in 20 mM Hepes buffer, pH 7.5 and used in the assay at final concentrations of 20 nM primer and 0.67 μg/μl beads. Order of addition in the assay: enzyme (14 nM) was added to diluted compound followed by the addition of a mixture of template (0.2 nM), 3H-UTP (0.6 μCi, 0.29 μM), and primer-bound beads, to initiate the reaction; concentrations given are final. Reactions were allowed to proceed for 4 hours at 30° C.
IC50 values for compounds were determined using seven different [I]. […]

The next assay relates to HCV replicon cells. Briefly: HCV replicon FRET assay. It counts as cell-based. An excerpt:
FRET Assay Preparation. To perform the HCV FRET screening assay, 96-well cell culture plates were used. The FRET peptide (Anaspec, Inc.) (Taliani et al., Anal. Biochem. 1996, 240, 60-67) contains a fluorescence donor, EDANS, near one end of the peptide and an acceptor, DABCYL, near the other end. The fluorescence of the peptide is quenched by […] resonance energy transfer (RET) between the donor and the acceptor, but as the NS3 protease cleaves the peptide the products are released from RET quenching and the fluorescence of the donor becomes apparent. The assay reagent was made as follows: 5× cell Luciferase cell culture lysis reagent from Promega (#E153A) diluted to 1× with dH2O, NaCl added to 150 mM final, the FRET peptide diluted to 20 uM final from a 2 mM stock.
To prepare plates, HCV replicon cells, with or without a Renilla luciferase reporter gene, were trypsinized and placed into each well of a 96-well plate with titrated test compounds added in columns 3 through 12; columns 1 and 2 contained a control compound (HCV protease inhibitor), and the bottom row contained cells without compound. The plates were then placed in a CO2 incubator at 37° C.
Assays. Subsequent to addition of the test compounds described above (FRET Assay Preparation), at various times the plate was removed and Alamar blue solution (Trek Diagnostics, #00-100) was added per well as a measure of cellular toxicity. After reading in a Cytoflour 4000 instrument (PE Biosystems), plates were rinsed with PBS and then used for FRET assay by the addition of 30 ul of the FRET peptide assay reagent described above (FRET Assay Preparation) per well. The plate was then placed into the Cytoflour 4000 instrument which had been set to 340 excite/490 emission, automatic mode for 20 cycles and the plate read in a kinetic mode. Typically, the signal to noise using an endpoint analysis after the reads was at least three-fold. Alternatively, after Alamar blue reading, plates were rinsed with PBS, 50 ul of DMEM (high glucose) without phenol red was added and plates were then used for luciferase assay using the Promega Dual-Glo Luciferase Assay System.
Compound analysis was determined by quantification of the relative HCV replicon inhibition and the relative cytotoxicity values. To calculate cytoxicity values, the average Alamar Blue fluorescence signals from the control wells were set as 100% non-toxic. The individual signals in each of the compound test wells were then divided by the average control signal and multiplied by 100% to determine […]. To calculate the HCV replicon inhibition values, an average background value was obtained from the two wells containing the highest amount of HCV protease inhibitor at the end of the assay period. These numbers were similar to those obtained from naïve Huh-7 cells.
The background numbers were then subtracted from the average signal obtained from the control wells and this number was used as 100% activity. The individual signals in each of the compound test wells were then divided by the averaged control values after background subtraction and multiplied by 100% to determine percent activity. EC50 values for a protease inhibitor titration were calculated as the concentration which caused a 50% reduction in FRET or luciferase activity. The two numbers generated for the compound plate, percent cytoxicity and percent activity were used to determine compounds of interest for further analysis.
In general terms: In antiviral work, replicon cells carry a viral genome segment that copies itself.

The mark [2] stands for this setting: Hepatitis C virus, FRET assay, HCV replicon cells, read-out: EC50.

In patent publication US7521441B2, “Cyclopropyl fused indolobenzazepine HCV NS5B inhibitors” (Bristol-Myers Squibb Company, priority 2006, dated 2009) one finds IC50 and EC50 data, which are given here for 14 compounds.

For orientation: IC50 means the concentration needed to halve the response being measured. Read a low IC50 as higher potency. Usually EC50 stands for the concentration needed to bring the measured effect to its halfway point.

Like-named read-outs stand apart in the source and are kept apart here.

T1 sequence (Q9WMX2 2420-2992): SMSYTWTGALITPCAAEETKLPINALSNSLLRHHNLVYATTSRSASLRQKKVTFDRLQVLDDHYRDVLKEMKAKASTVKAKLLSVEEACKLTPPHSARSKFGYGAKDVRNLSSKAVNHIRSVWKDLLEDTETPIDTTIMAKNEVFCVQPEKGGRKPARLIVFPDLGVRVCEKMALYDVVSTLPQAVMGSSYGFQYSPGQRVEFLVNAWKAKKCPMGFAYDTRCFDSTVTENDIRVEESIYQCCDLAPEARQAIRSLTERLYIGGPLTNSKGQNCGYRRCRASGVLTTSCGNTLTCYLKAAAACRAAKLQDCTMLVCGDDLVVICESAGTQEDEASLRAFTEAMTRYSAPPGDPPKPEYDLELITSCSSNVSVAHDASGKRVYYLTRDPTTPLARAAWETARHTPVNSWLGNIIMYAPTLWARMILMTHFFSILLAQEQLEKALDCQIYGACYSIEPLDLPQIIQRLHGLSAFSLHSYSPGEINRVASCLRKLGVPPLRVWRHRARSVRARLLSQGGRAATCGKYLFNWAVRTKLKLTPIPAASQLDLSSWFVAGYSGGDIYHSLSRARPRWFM

The compound `COc1ccc2c(c1)C1CC1(C(=O)N1[C@H](C)CN(Cc3ccccc3)C[C@@H]1C)Cn1c-2c(C2CCCCC2)c2ccc(C(=O)NS(=O)(=O)N(C)C)cc21` (stereo partly shown) returned an IC50 in assay [1] of 1000 to 10000 nM. The EC50 with HCV replicon cells (setting [2]) fell in the range of 500 to 1000 nM.
On the same counts, the results for `COc1ccc2c(c1)C1CC1(C(=O)N1C[C@@H](C)N(C)[C@@H](C)C1)Cn1c-2c(C2CCCCC2)c2ccc(C(=O)NS(=O)(=O)C(C)C)cc21` (stereo partly shown) are 1 to 500 nM and 1 to 500 nM.
The compound `COc1ccc2c(c1)C1CC1(C(=O)N1C[C@@H](C)N(C)[C@@H](C)C1)Cn1c-2c(C2CCCCC2)c2ccc(C(=O)NS(=O)(=O)N(C)C)cc21` (stereo partly shown) gave an IC50 in assay [1] of 1 to 500 nM. This compound had an EC50 with HCV replicon cells (Hepatitis C virus) of 1 to 500 nM.
For `COc1ccc2c(c1)C1CC1(C(=O)N1C[C@@H](C)N(C(C)=O)[C@@H](C)C1)Cn1c-2c(C2CCCCC2)c2ccc(C(=O)NS(=O)(=O)N(C)C)cc21` (stereo partly shown), in assay [1], the IC50 fell in the range of 1 to 500 nM. Moreover, the EC50 in the assay on HCV replicon cells (Hepatitis C virus) was in the range of 1 to 500 nM.
Turning to `COc1ccc2c(c1)C1CC1(C(=O)N1C[C@@H](C)N(C)[C@@H](C)C1)Cn1c-2c(C2CCCCC2)c2ccc(C(=O)NS(C)(=O)=O)cc21` (stereo partly shown) [drawing 34], in assay [1], the IC50 was 1 to 500 nM. Further, the EC50 in the assay with HCV replicon cells (FRET assay, HCV replicon cells, read-out: EC50) lay within 1 to 500 nM.
`COc1ccc2c(c1)[C@@H]1C[C@]1(C(=O)N1C[C@@H](C)N(C)[C@@H](C)C1)Cn1c-2c(C2CCCCC2)c2ccc(C(=O)NS(=O)(=O)N(C)C)cc21` returned an IC50 in assay [1] of 1 to 500 nM. The compound further gave an EC50 in the assay with HCV replicon cells (Hepatitis C virus) of 1 to 500 nM.
With `COc1ccc2c(c1)C1CC1(C(=O)N1C[C@@H](C)N(C)[C@@H](C)C1)Cn1c-2c(C2CCCCC2)c2ccc(C(=O)NS(=O)(=O)N3CCC3)cc21` (stereo partly shown), the IC50 in assay [1] lay in the range of 1 to 500 nM. Besides, the EC50 with HCV replicon cells (setting [2]) was 1 to 500 nM.
Take `COc1cccc2c1C1CC1(C(=O)N1C[C@@H](C)N(C)[C@@H](C)C1)Cn1c-2c(C2CCCCC2)c2ccc(C(=O)NS(=O)(=O)N(C)C)cc21` (stereo partly shown): the IC50 in assay [1] fell in the range of 1 to 500 nM. The EC50 in the assay with HCV replicon cells (setting [2]) was 1 to 500 nM.
Turning to `COc1ccc2c(c1)C1CC1(C(=O)N1C[C@@H](C)N(C)[C@@H](C)C1)Cn1c-2c(C2CCCCC2)c2ccc(C(=O)NS(C)(=O)=O)cc21` (stereo partly shown) [drawing 31], in assay [1], the IC50 lay in the range of 1 to 500 nM. Moreover, the EC50 with HCV replicon cells (setting [2]) was 1 to 500 nM.
`COc1ccc2c(c1)C1CC1(C(=O)N1C[C@@H](C)N(C)[C@@H](C)C1)Cn1c-2c(C2CCCCC2)c2ccc(C(=O)NS(=O)(=O)C3CC3)cc21` (stereo partly shown) had an IC50 in assay [1] of 1 to 500 nM. Also, the 50% effective concentration (EC50) with HCV replicon cells (setting [2]) was 1 to 500 nM.
The compound `C[C@@H]1CN(C(=O)C23CC2c2cc(O)ccc2-c2c(C4CCCCC4)c4ccc(C(=O)NS(=O)(=O)N(C)C)cc4n2C3)C[C@H](C)N1C` (stereo partly shown) showed an IC50 in assay [1] of 1 to 500 nM. For the same compound, the EC50 in the assay with HCV replicon cells (setting [2]) was in the range of 1 to 500 nM.
In turn, `COc1ccc2c(c1)[C@H]1C[C@@]1(C(=O)N1C[C@@H](C)N(C)[C@@H](C)C1)Cn1c-2c(C2CCCCC2)c2ccc(C(=O)NS(=O)(=O)N(C)C)cc21` returned an IC50 in assay [1] of 1 to 500 nM. The compound further displayed an EC50 in the assay on HCV replicon cells (Hepatitis C virus) of 1 to 500 nM.
The compound `COc1ccc2c(c1)C1CC1(C(=O)N1C[C@@H](C)N(C(C)C)[C@@H](C)C1)Cn1c-2c(C2CCCCC2)c2ccc(C(=O)NS(=O)(=O)N(C)C)cc21` (stereo partly shown) showed an IC50 in assay [1] of 1 to 500 nM. In the assay with HCV replicon cells (setting [2]), the EC50 was 1 to 500 nM.
With `C[C@@H]1CN(C(=O)C23CC2c2cc(OCc4ccccc4)ccc2-c2c(C4CCCCC4)c4ccc(C(=O)NS(=O)(=O)N(C)C)cc4n2C3)C[C@H](C)N1C` (stereo partly shown), in assay [1], the concentration for half-maximal inhibition (IC50) lay within 1 to 500 nM. Moreover, the EC50 with HCV replicon cells (setting [2]) was 1 to 500 nM.
